Data as given in PubChem BioAssay (NCI).
Values joined by “and” are separate entries in the source; they are usually repeats but may differ in a detail not shown here. Equal values may be shown once.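 Five concentrations, 48 hours, 96-well plates. GI50 is the concentration that inhibits growth by half. TGI: concentration producing complete growth inhibition.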

Assays:
Experiment in all cases: NCI tumour cell line growth inhibition, 48 h
ACHN renal = tested on: ACHN renal
HCC-2998 colon = tested on: HCC-2998 colon
HCT-116 colon = tested on: HCT-116 colon
MDA-MB-435 = tested on: MDA-MB-435
NCI-H522 lung = tested on: NCI-H522 lung
RPMI-8226 leukemia = tested on: RPMI-8226 leukemia
SF-268 CNS = tested on: SF-268 CNS
SNB-75 CNS = tested on: SNB-75 CNS
UACC-62 melanoma = tested on: UACC-62 melanoma
MOLT-4 leukemia = tested on: MOLT-4 leukemia

Compound	GI50 (ACHN renal) [µM]	TGI (ACHN renal) [µM]	GI50 (HCC-2998 colon) [µM]	TGI (HCC-2998 colon) [µM]	GI50 (HCT-116 colon)	TGI (HCT-116 colon)	GI50 (MDA-MB-435) [µM]	TGI (MDA-MB-435)	GI50 (NCI-H522 lung) [µM]	TGI (NCI-H522 lung) [µM]	GI50 (RPMI-8226 leukemia) [µM]	TGI (RPMI-8226 leukemia) [µM]	GI50 (SF-268 CNS) [µM]	TGI (SF-268 CNS) [µM]	GI50 (SNB-75 CNS) [µM]	TGI (SNB-75 CNS) [µM]	GI50 (UACC-62 melanoma) [µM]	TGI (UACC-62 melanoma) [µM]	TGI (MOLT-4 leukemia) [µM]	GI50 (MOLT-4 leukemia) [µM]
CCNCCNc1cc(-c2ccc(C(F)(F)F)cc2)c(C#N)c2nc3cc(Cl)c(Cl)cc3n12	1.61	3.1	2.34	4.14	0.177 µM	0.338 µM	1.65	3.16 µM	1.78	3.37	1.71	3.85	1.6	3.22	1.38	2.69	1.84	3.57	–	–
COC12OCCN(C)C1=CC(=O)C1(C)N=NCC12 (configuration not stated)	–	> 100	–	> 100	–	> 100 µM	–	–	–	> 100	–	> 100	–	–	–	> 100	–	> 100	> 100	–
CN1CCN(CCCN2c3ccccc3Sc3ccc(Cl)cc32)CC1	5.93	12.4	3.53	10.3	5.15 µM and 39.9 µM	12 µM and 54.2 µM	–	6.02 µM and 58.6 µM	42	56.8	6.16	16	5.27	12	–	–	–	–	11.5	3.8
CC(C)c1ccc(/C=C/c2cc(C(=O)NNC(=O)NC3CCCCC3)nc(=S)[nH]2)cc1	–	> 100	–	> 100	–	> 100 µM	–	–	–	> 100	–	> 100	–	> 100	–	> 100	–	> 100	–	–
COc1cccc(C2SCc3nc4ccccc4n32)c1 (configuration not stated)	–	> 100	–	> 100	–	> 100 µM	–	–	–	–	–	–	–	> 100	–	> 100	–	> 100	> 100	–
Cc1ccc(S(=O)(=O)OCCOCCOCCOCCOCCOS(=O)(=O)c2ccc(C)cc2)cc1	–	> 100	–	> 100	–	> 100 µM	–	–	–	> 100	–	92.7	–	> 100	–	> 100	–	> 100	41.4	–
Cn1c(-c2c(N)n(Cc3ccc(F)cc3)c3nc(C#N)c(C#N)nc23)nc2ccccc21	0.829	2.43	1.35	3.05	–	–	1.83	13.3 µM	–	–	1.35	7.17	5.47	> 50	–	–	3.37	26.6	–	–
C=C1C(=O)C2=CC1CCC(=O)C1(C)CCC(OC(C)=O)C(C)(C)C1CC2O (configuration not stated)	–	6.82	–	4	–	> 21.2 µM	–	26 µM	–	2.19	–	> 100	–	38.7	–	24.8	–	5.96	–	–
COc1cc(O)c2c(c1)C(=O)C1=C(C2=O)C(O)C[C@@](C)(O)C1 (some centres not stated)	–	4.46	–	2.91	–	2.22 µM	–	–	–	2.47	–	6.52	–	4.47	–	–	–	3.1	7.63	–
COc1cc(CCNC(=O)OC(C)(C)C)c2c(c1OC)SSSSS2	2.56	4.93	–	–	5.51 µM	> 100 µM	2.28	4.78 µM	2.1	4.18	2.11	10.7	1.87	4.04	2.27	4.56	3.93	15.5	> 100	5.46
COc1ccc2c(c1)[n+]([O-])c(/C(C)=N/NC(=O)c1ccccc1O)c(C)[n+]2[O-]	–	> 100	–	> 100	–	> 100 µM	–	–	–	> 100	–	> 100	–	> 100	–	–	–	> 100	> 100	–
COc1cc2nc3cc([N+](=O)[O-])ccc3c(NCCNCC(C)O)c2cc1OC (configuration not stated)	0.614	3.93	–	–	0.358 µM	1.75 µM	0.572	1.98 µM	0.224	1.06	1.55	5.52	0.469	2.46	0.675	2.07	–	–	6.21	0.353
COc1ccc2nc3cccc([N+](=O)[O-])c3c(NC(C)CN(C)C)c2c1 (configuration not stated)	1.58	7.23	–	–	1.44 µM	7.49 µM	–	–	0.69	2.18	1.78	6	2.64	11.9	2.25	5.55	1.46	3.05	4.13	1.23
O=C1C(c2ccccc2)=C(c2ccccc2)C(c2ccc(Sc3ccc(C4=C(c5ccccc5)C(=O)C(c5ccccc5)=C4c4ccccc4)cc3)cc2)=C1c1ccccc1	–	–	–	–	–	> 100 µM	–	–	–	> 100	–	> 100	–	> 100	–	76.5	–	> 100	> 100	–
COC(=O)C1[C@H](c2ccc3c(c2)OCO3)OC(=O)[C@]1(C(=O)OC)C(=O)c1ccc(OC)c(OC)c1 (some centres not stated)	–	> 100	–	> 100	–	–	–	–	–	–	–	> 100	–	–	–	> 100	–	> 100	87.2	–
O=C(CSSCC(=O)Nc1ccc(Br)cc1)Nc1ccc(Br)cc1	–	30	–	50.6	–	28.1 µM	–	–	–	24.8	–	64.3	–	26.6	–	40.1	–	29.3	67	–
O=[N+]([O-])C=C1c2ccccc2-c2ccccc21	–	30.6	–	30.6	–	17.5 µM	–	–	–	–	–	5.5	–	36.4	–	40.7	–	–	53.5	–
CCOC(=O)CN(c1ccccc1)c1nc(=[N+](C)C)ss1	–	> 100	–	> 100	–	> 100 µM	–	–	–	0.492	–	55.5	–	> 100	–	> 100	–	59.3	28.2	–
NCCSC(c1ccccc1)(c1ccccc1)c1ccccc1	1.48	11.2	–	–	0.373 µM	1.49 µM	0.242	0.55 µM	0.369	1.7	1.11	4.19	0.966	11.2	1.73	5.31	–	–	7.1	2.3

Compound	GI50 (ACHN renal) [µM]	TGI (ACHN renal) [µM]	GI50 (HCC-2998 colon) [µM]	TGI (HCC-2998 colon) [µM]	GI50 (HCT-116 colon)	TGI (HCT-116 colon)	GI50 (MDA-MB-435) [µM]	TGI (MDA-MB-435)	GI50 (NCI-H522 lung) [µM]	TGI (NCI-H522 lung) [µM]	GI50 (RPMI-8226 leukemia) [µM]	TGI (RPMI-8226 leukemia) [µM]	GI50 (SF-268 CNS) [µM]	TGI (SF-268 CNS) [µM]	GI50 (SNB-75 CNS) [µM]	TGI (SNB-75 CNS) [µM]	GI50 (UACC-62 melanoma) [µM]	TGI (UACC-62 melanoma) [µM]	TGI (MOLT-4 leukemia) [µM]	GI50 (MOLT-4 leukemia) [µM]
CC(C)=NNC(=S)NC12CC3CC(CC(C3)C1)C2	–	> 100	–	–	–	> 100 µM	–	–	–	> 100	–	> 100	–	> 100	–	> 100	–	> 100	> 100	–
[Cu+2].[NH-]C(CC(=O)O)C(=O)O.[NH-]C(CC(=O)O)C(=O)O (configuration not stated)	> 100	> 100	–	–	> 100 µM	> 100 µM	40.2	> 100 µM	91.8	> 100	> 100	> 100	> 100	> 100	> 100	> 100	> 100	> 100	> 100	> 100
O=C(c1ccccc1)c1nc2ccc(C(F)(F)F)cc2nc1N1CCN(c2ccccc2)CC1	21.6	53.7	–	–	24.7 µM	53.7 µM	35.6	> 100 µM	34.6	91.3	23.3	> 100	48	> 100	–	–	18.5	43.2	> 100	24.6
COc1cc2c(c(OC)c1OC)-c1c(c3ccc([N+](=O)[O-])cc3c(=O)n1CCCN)C2=O	8.06	16.6	9.12	17.6	0.828 µM	1.53 µM	0.865	1.63 µM	9.63	19.1	1.29	3.75	13.2	34.6	–	–	9.12	17	14.2	5.82
N#CCc1nnc(N)o1	–	> 100	–	–	–	> 100 µM	–	–	–	> 100	–	> 100	–	> 100	–	> 100	–	> 100	> 100	–
CC[PH+](CC)CC.CC[PH+](CC)CC.[Au]	17.6	31.4	20.7	35.2	16 µM	32.9 µM	–	–	0.308	1.25	3.87	30.2	13.4	30.1	15	29	3.9	19.1	24.1	5.33
CC1=C(C(=O)CC(=O)C(=O)Nc2ccc(C)c(C)c2)Sc2ccccc2N1	–	> 100	–	> 100	–	> 100 µM	–	–	–	> 100	–	> 100	–	> 100	–	> 100	–	> 100	–	–
O=C(O)Cc1ccc(N=Nc2c(O)c(C(=O)O)cc3ccccc23)cc1	–	> 100	–	> 100	–	> 100 µM	–	> 100 µM	–	–	–	> 100	–	> 100	–	> 100	–	> 100	> 100	–
CCOC(=O)C1SC(=Nc2ccc(Cl)cc2Cl)N=C1C (configuration not stated)	–	> 100	–	> 100	–	> 100 µM	–	–	–	> 100	–	–	–	> 100	–	82	–	> 100	–	–
NC(N)=N/N=C/c1c(-c2cccnc2)nc2sc(Cl)cn12	10.3	21.9	14.4	27.5	–	–	16.6	30.5 µM	30.6	> 100	18	42	20.7	52.7	–	–	14.1	27.1	31.6	13.6
O=C1CC(N2C(=O)/C(=C/C(Cl)=C\c3ccc([N+](=O)[O-])cc3)SC2=S)C(=O)N1c1ccc(O)cc1 (configuration not stated)	1.36	2.76	1.48	2.92	0.751 µM	2.14 µM	2.01	4.34 µM	1.86	4.23	0.295	4.36	2.43	6.99	–	–	1.67	3.38	15.3	0.544
CN(C)CCNC(=O)c1ccc2oc3cc4ccccc4c(=O)n3c2c1	15.1	37.6	–	–	41.6 µM	> 100 µM	42.1	> 100 µM	18.1	39.8	51.2	> 100	32.6	93.2	22.9	61.2	48.4	> 100	> 100	64.2
O=C1C(=O)N(c2ccc(Cl)cc2)C(=O)C(=Nc2cccc3c(=O)[nH][nH]c(=O)c23)C1c1nc2ccccc2o1 (configuration not stated)	–	> 100	–	> 100	–	> 100 µM	–	–	–	–	–	> 100	–	> 100	–	> 100	–	> 100	> 100	–
Nc1nn(C(=O)Nc2c(F)cccc2F)c2ccccc12	50.1	> 100	95.8	> 100	34.8 µM	> 100 µM	54.9	> 100 µM	55.1	> 100	16.1	> 100	36.2	> 100	–	–	43.9	> 100	> 100	32.7
CN(/N=C\c1ccnc2ccccc12)c1ccccc1	–	95.8	–	–	–	36 µM	–	–	–	41.9	–	> 100	–	> 100	–	94.9	–	37.2	> 100	–
Cc1ccc(C2=Nc3ccccc3S(=O)C(c3ccc4c(c3)OCO4)C2)cc1 (configuration not stated)	–	82.4	–	> 10	–	37.3 µM	–	–	–	44.7	–	–	–	50.5	–	> 100	–	51.2	> 100	–
C=C1CC2(CCS(=O)(=O)c3ccccc32)OC1=O (configuration not stated)	–	23.7	–	37.1	–	–	–	–	–	11.4	–	10.6	–	38.4	–	–	–	31.6	15	–
c1ccc2c(CNCCCCCCCCNCc3cccc4ccccc34)cccc2c1	–	8.36	–	–	–	3.05 µM	–	–	–	3.24	–	3.87	–	21.4	–	3.35	–	3.24	9.64	–
O=C(O)CN(c1ccc(F)cc1)S(=O)(=O)c1ccccc1	–	> 100	–	–	–	–	–	–	–	> 100	–	> 100	–	> 100	–	> 100	–	> 100	> 100	–
